Key:
A/M2 S31N mutant = A/M2 S31N mutant (Influenza A virus, UniProt P0DOF5, S31N); assay type: cell-based, influenza A/Udorn/72
A/M2 V27A mutant = A/M2 V27A mutant (Influenza A virus, UniProt P0DOF5, V27A); assay type: cell-based, influenza A/Udorn/72

6,7,8,9,10,11-Hexahydro-9-methyl-5,7:9,11-dimethano-5H-benzocyclononen-7-amine hydrochloride [Compound 3]
inhibition of S31N A/M2 channel activity (in words) (A/M2 S31N mutant): Neither 3 nor 11 were able to inhibit
inhibition of V27A A/M2 channel activity (in words) (A/M2 V27A mutant): Neither 3 nor 11 were able to inhibit

N,N-Dimethyl-6,7,8,9,10,11-hexahydro-9-methyl-5,7:9,11-dimethano-5H-benzocyclononen-7-amine hydrochloride [Compound 11]
inhibition of S31N A/M2 channel activity (in words) (A/M2 S31N mutant): Neither 3 nor 11 were able to inhibit
inhibition of V27A A/M2 channel activity (in words) (A/M2 V27A mutant): Neither 3 nor 11 were able to inhibit

N-Benzyl-6,7,8,9,10,11-hexahydro-9-methyl-5,7:9,11-dimethano-5H-benzocyclononen-7-amine hydrochloride [Compound 6]
inhibition of S31N A/M2 channel activity (in words) (A/M2 S31N mutant): unable to inhibit
inhibition of V27A A/M2 channel activity (in words) (A/M2 V27A mutant): unable to inhibit
